Structures can show the parent of a compound that is named as a salt. Where two headings read alike, the source gives them in different places.
Experiments:
[1] = molecular target: T1, SARS-CoV-2 PLpro (nsp3 1564–1878) (Severe acute respiratory syndrome coronavirus 2, UniProt P0DTD1); experiment: biochemical; set-up: FRET-quenched peptide (Pro3) cleavage by PLpro, 10 min pre-incubation, slope over 20 min, normalised to no-compound control; conditions: read-out: % of control remaining
[2] = molecular target: T1, SARS-CoV-2 PLpro (nsp3 1564–1878); experiment: biochemical; set-up: FRET-quenched peptide (Pro3) cleavage by PLpro, 10 min pre-incubation, slope over 20 min, normalised to no-compound control; conditions: read-out: % of control remaining; remark: listed apart in the source

Cn1cnc2c(NCc3ccccc3)nc(NCCO)nc21 [Olomoucine - 6-(Benzylamino)-2-(2-hydroxyethylamino)-9-methylpurine]
remaining activity at 1.25 µM ([1]; Well no.=2382, low concentration screen): 101% | remaining activity at 3.75 µM ([2]; Well no.=2382, high concentration screen): 102%

CN1[C@@H]2CCC[C@H]1C[C@@H](NC(=O)c1nn(C)c3ccccc13)C2 [Granisetron (Hydrochloride)]
remaining activity at 1.25 µM ([1]; Well no.=6223, low concentration screen): 104% | remaining activity at 3.75 µM ([2]; Well no.=6223, high concentration screen): 102%

CCCN(CCC)CCc1cccc2c1CC(=O)N2 [Ropinirole hydrochloride]
remaining activity at 1.25 µM ([1]; Well no.=1444, low concentration screen): 93.6% | remaining activity at 3.75 µM ([2]; Well no.=1444, high concentration screen): 97.7%

COC(=O)Nc1nc2cc(Sc3ccccc3)ccc2[nH]1 [Fenbendazole]
remaining activity at 1.25 µM ([1]; Well no.=2076, low concentration screen): 105% | remaining activity at 3.75 µM ([2]; Well no.=2076, high concentration screen): 102%

Cc1nc2ccccn2c(=O)c1CCN1CCC(C(=O)c2ccc(F)cc2)CC1 [Pirenperone]
remaining activity at 1.25 µM ([1]; Well no.=1359, low concentration screen): 101% | remaining activity at 3.75 µM ([2]; Well no.=1359, high concentration screen): 102%

NC[C@H](CC(=O)O)c1ccc(Cl)cc1 [(R)-baclofen]
remaining activity at 1.25 µM ([1]; Well no.=5315, low concentration screen): 96.9% | remaining activity at 3.75 µM ([2]; Well no.=5315, high concentration screen): 93.5%

O=C(O)CC[N+](=O)[O-] [3-Nitropropionic acid]
remaining activity at 1.25 µM ([1]; Well no.=953, low concentration screen): 100% | remaining activity at 3.75 µM ([2]; Well no.=953, high concentration screen): 99.4%

NC(=O)c1cc(-c2ccc(S(=O)(=O)[C@H]3CC[C@H](Nc4ccc(C(F)(F)F)cn4)CC3)cc2)ccn1 [CCR6 inhibitor 1]
remaining activity at 1.25 µM ([1]; Well no.=8609, low concentration screen): 103% | remaining activity at 3.75 µM ([2]; Well no.=8609, high concentration screen): 99%

NC(CO)C(=O)NNCc1ccc(O)c(O)c1O (centres unmarked) [Benserazide]
remaining activity at 1.25 µM ([1]; Well no.=1903, low concentration screen): 97.8% | remaining activity at 3.75 µM ([2]; Well no.=1903, high concentration screen): 97.7%

CCc1ccc(OCc2ccccc2C(=O)Nc2ccc3nc(C)cc(N)c3c2)cc1 [JTC-801]
remaining activity at 1.25 µM ([1]; Well no.=5025, low concentration screen): 98.2% | remaining activity at 1.25 µM ([1]; Well no.=7002, low concentration screen): 95.7% | remaining activity at 3.75 µM ([2]; Well no.=5025, high concentration screen): 98.7% | remaining activity at 3.75 µM ([2]; Well no.=7002, high concentration screen): 91.5%

C=C1[C@@H](C)[C@H]2[C@H](Cc3ccccc3)NC(=O)[C@]23[C@H](OC(C)=O)/C=C/[C@@](C)(O)C(=O)[C@@H](C)C/C=C/[C@H]3[C@@H]1O [Cytochalasin D]
remaining activity at 1.25 µM ([1]; Well no.=3581, low concentration screen): 98.2% | remaining activity at 3.75 µM ([2]; Well no.=3581, high concentration screen): 99.7%

N[C@H](CC(=O)O)C(=O)O [(-)-Aspartic acid]
remaining activity at 1.25 µM ([1]; Well no.=7063, low concentration screen): 103% | remaining activity at 3.75 µM ([2]; Well no.=7063, high concentration screen): 102%

Nc1cc(N2CCCCC2)nc(N)[n+]1[O-] [Minoxidil]
remaining activity at 1.25 µM ([1]; Well no.=1070, low concentration screen): 93.8% | remaining activity at 1.25 µM ([1]; Well no.=1808, low concentration screen): 89.4% | remaining activity at 3.75 µM ([2]; Well no.=1070, high concentration screen): 96.2% | remaining activity at 3.75 µM ([2]; Well no.=1808, high concentration screen): 90.5%

Oc1ccc2c3c1O[C@H]1[C@@H](O)CC[C@@]4(O)[C@@H](C2)N(CC2CCC2)CC[C@]314 [Nalbuphine]
remaining activity at 1.25 µM [1]: 95.6% | remaining activity at 3.75 µM [2]: 97.3%

C[C@]12Cc3c[nH]nc3C[C@@H]1CC[C@@H]1[C@@H]2CC[C@@]2(C)[C@H]1CC[C@]2(C)O [Stanozolol]
remaining activity at 1.25 µM [1]: 94% | remaining activity at 3.75 µM [2]: 95.3%

C[N+](C)(C)CCC(=O)c1cccc2ccccc12 [2-(alpha-Naphthoyl)ethyltrimethylammonium iodide]
remaining activity at 1.25 µM ([1]; Well no.=1051, low concentration screen): 96.5% | remaining activity at 3.75 µM ([2]; Well no.=1051, high concentration screen): 103%

CC(=O)c1c(C)c2cnc(Nc3ccc(N4CCNCC4)cn3)nc2n(C2CCCC2)c1=O [Palbociclib (hydrochloride)]
remaining activity at 1.25 µM ([1]; Well no.=7350, low concentration screen): 96.3% | remaining activity at 3.75 µM ([2]; Well no.=7350, high concentration screen): 97.5%

Cc1cc(-c2nnc(N)nc2-c2ccc(F)cc2)cc(Cl)n1 [AZD4635]
remaining activity at 1.25 µM ([1]; Well no.=8355, low concentration screen): 98.3% | remaining activity at 3.75 µM ([2]; Well no.=8355, high concentration screen): 96%

CC(C)N(CCCCOCC(=O)NS(C)(=O)=O)c1cnc(-c2ccccc2)c(-c2ccccc2)n1 [NS-304]
remaining activity at 1.25 µM ([1]; Well no.=6795, low concentration screen): 97.6% | remaining activity at 3.75 µM ([2]; Well no.=6795, high concentration screen): 94.6%

Cn1c(=O)[nH]c(=O)c2[nH]cnc21 [3-Methylxanthine]
remaining activity at 1.25 µM ([1]; Well no.=6777, low concentration screen): 106% | remaining activity at 3.75 µM ([2]; Well no.=6777, high concentration screen): 102%

N=C(N)SCCc1ccc(OCc2ccc([N+](=O)[O-])cc2)cc1 [KB-R7943]
remaining activity at 1.25 µM ([1]; Well no.=5823, low concentration screen): 105% | remaining activity at 3.75 µM ([2]; Well no.=5823, high concentration screen): 106%

C[C@H]1CCC[C@H](O)CCCCCc2cc(O)cc(O)c2C(=O)O1
remaining activity at 1.25 µM ([1]; Well no.=3340, low concentration screen): 91.6% | remaining activity at 3.75 µM ([2]; Well no.=3340, high concentration screen): 94%

Clc1cccc(COc2cncc(N3CCNCC3)n2)c1 [CP-809101 (hydrochloride)]
remaining activity at 1.25 µM ([1]; Well no.=7851, low concentration screen): 95.1% | remaining activity at 3.75 µM ([2]; Well no.=7851, high concentration screen): 83.3%

C[C@H]1[C@H](C)CC[C@]2(C(=O)O)CC[C@]3(C)C(=CC[C@@H]4[C@@]5(C)CCC(=O)C(C)(C)[C@@H]5CC[C@]43C)[C@H]12 [Ursonic acid]
remaining activity at 1.25 µM ([1]; Well no.=6448, low concentration screen): 98.3% | remaining activity at 3.75 µM ([2]; Well no.=6448, high concentration screen): 98.4%

COc1nccnc1NS(=O)(=O)c1cccc(Cl)c1Cl [AZD2098]
remaining activity at 1.25 µM ([1]; Well no.=8225, low concentration screen): 102% | remaining activity at 3.75 µM ([2]; Well no.=8225, high concentration screen): 98.6%

C#C[C@]1(CO)O[C@@H](n2cnc3c(N)nc(F)nc32)C[C@@H]1O [Islatravir]
remaining activity at 1.25 µM ([1]; Well no.=7822, low concentration screen): 105% | remaining activity at 3.75 µM ([2]; Well no.=7822, high concentration screen): 105%

NCCc1ccc(O)cc1 [Tyramine]
remaining activity at 1.25 µM ([1]; Well no.=6541, low concentration screen): 107% | remaining activity at 3.75 µM ([2]; Well no.=6541, high concentration screen): 101%

O=C(Nc1cnc(-c2ccncc2F)c(-c2cccnc2)n1)C1CC1 [LAS101057]
remaining activity at 1.25 µM ([1]; Well no.=8599, low concentration screen): 105% | remaining activity at 3.75 µM ([2]; Well no.=8599, high concentration screen): 103%

Cn1c(=O)c2c(ncn2C)n(C)c1=O [Caffeine]
remaining activity at 1.25 µM ([1]; Well no.=329, low concentration screen): 95.2% | remaining activity at 1.25 µM ([1]; Well no.=1737, low concentration screen): 105% | remaining activity at 1.25 µM ([1]; Well no.=3344, low concentration screen): 89.5% | remaining activity at 3.75 µM ([2]; Well no.=329, high concentration screen): 95.9% | remaining activity at 3.75 µM ([2]; Well no.=1737, high concentration screen): 103% | remaining activity at 3.75 µM ([2]; Well no.=3344, high concentration screen): 91.8%

Cc1ccc(O)c(N=Nc2c(O)cc(S(=O)(=O)O)c3ccccc23)c1 [Calmagite]
remaining activity at 1.25 µM ([1]; Well no.=8168, low concentration screen): 96.3% | remaining activity at 3.75 µM ([2]; Well no.=8168, high concentration screen): 82.2%

CN1C(=O)C(Cc2c[nH]c3ccccc23)NC1=S (centres unmarked) [Necrostatin-1]
remaining activity at 1.25 µM ([1]; Well no.=2493, low concentration screen): 95.6% | remaining activity at 1.25 µM ([1]; Well no.=6196, low concentration screen): 92.6% | remaining activity at 1.25 µM ([1]; Well no.=8505, low concentration screen): 109% | remaining activity at 3.75 µM ([2]; Well no.=2493, high concentration screen): 98.6% | remaining activity at 3.75 µM ([2]; Well no.=6196, high concentration screen): 92.5% | remaining activity at 3.75 µM ([2]; Well no.=8505, high concentration screen): 104%

OCc1ccc(O)cc1 [4-Hydroxybenzyl alcohol]
remaining activity at 1.25 µM ([1]; Well no.=6876, low concentration screen): 98.2% | remaining activity at 3.75 µM ([2]; Well no.=6876, high concentration screen): 95.1%

CC(C)c1cccc(=O)c(O)c1 [Hinokitiol]
remaining activity at 1.25 µM ([1]; Well no.=3893, low concentration screen): 105% | remaining activity at 3.75 µM ([2]; Well no.=3893, high concentration screen): 103%

C#CCOC(=O)C1=CCCN(C)C1 [Arecaidine propargyl ester hydrobromide]
remaining activity at 1.25 µM ([1]; Well no.=254, low concentration screen): 97.1% | remaining activity at 3.75 µM ([2]; Well no.=254, high concentration screen): 98.4%
